In patent US10479795B2 (Incyte Corporation, priority 2016, dated 2019):
Structures can show the parent of a compound that is named as a salt. Where two headings read alike, the source gives them in different places.

Assays:
[1] = target: PI3Kδ (p110δ/p85α) Recombinant Human Protein (Homo sapiens (Human), UniProt O00329); test: PI3Kδ Scintillation Proximity Assay; format: biochemical
Outline: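 Recombinant human p110δ/p85α (3.4 nM) phosphorylates 20 μM di-octanoyl PIP2 using 2 μM ATP spiked with [γ-33P]ATP, 120 min, room temperature, pH 6.7, 2% DMSO. Product measured by scintillation proximity; IC50 from dose-response fit.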

[2] = target: PI3Kγ (p110γ) Recombinant Human Protein (Homo sapiens (Human), UniProt P48736); test: PI3K-γ Scintillation Proximity Assay; format: biochemical; settings: read-out: PI3Kγ IC50
Outline: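 Recombinant human p110γ assayed at room temperature in 20 mM MOPS pH 6.7, 10 mM MgCl2, 5 mM DTT, 0.03% CHAPS, 2% DMSO, with 20 μM PIP2 and 2 μM ATP plus [γ-33P]ATP. Product captured on WGA SPA beads overnight and counted; IC50 fitted from % of solvent-control activity versus log inhibitor concentration.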

[3] = test system: Phosphorylated Ribosomal Protein S6 (RPS6); test: THP-1 RPS6 ELISA Assay; format: cell-based, Human; settings: THP-1 cells, read-out: PI3Kγ_THP1_RPS6_ELISA IC50
Outline: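 Serum-starved THP-1 cells were preincubated with a concentration range of compound for 2 h at 37 °C, then stimulated with 10 nM MCP-1 for 15 min. Phospho-RPS6 in lysates was quantified by ELISA at 450 nm. IC50 came from percent inhibition versus log inhibitor concentration.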

PI3Kδ (p110δ/p85α) Recombinant Human Protein, sequence (O00329 whole entry): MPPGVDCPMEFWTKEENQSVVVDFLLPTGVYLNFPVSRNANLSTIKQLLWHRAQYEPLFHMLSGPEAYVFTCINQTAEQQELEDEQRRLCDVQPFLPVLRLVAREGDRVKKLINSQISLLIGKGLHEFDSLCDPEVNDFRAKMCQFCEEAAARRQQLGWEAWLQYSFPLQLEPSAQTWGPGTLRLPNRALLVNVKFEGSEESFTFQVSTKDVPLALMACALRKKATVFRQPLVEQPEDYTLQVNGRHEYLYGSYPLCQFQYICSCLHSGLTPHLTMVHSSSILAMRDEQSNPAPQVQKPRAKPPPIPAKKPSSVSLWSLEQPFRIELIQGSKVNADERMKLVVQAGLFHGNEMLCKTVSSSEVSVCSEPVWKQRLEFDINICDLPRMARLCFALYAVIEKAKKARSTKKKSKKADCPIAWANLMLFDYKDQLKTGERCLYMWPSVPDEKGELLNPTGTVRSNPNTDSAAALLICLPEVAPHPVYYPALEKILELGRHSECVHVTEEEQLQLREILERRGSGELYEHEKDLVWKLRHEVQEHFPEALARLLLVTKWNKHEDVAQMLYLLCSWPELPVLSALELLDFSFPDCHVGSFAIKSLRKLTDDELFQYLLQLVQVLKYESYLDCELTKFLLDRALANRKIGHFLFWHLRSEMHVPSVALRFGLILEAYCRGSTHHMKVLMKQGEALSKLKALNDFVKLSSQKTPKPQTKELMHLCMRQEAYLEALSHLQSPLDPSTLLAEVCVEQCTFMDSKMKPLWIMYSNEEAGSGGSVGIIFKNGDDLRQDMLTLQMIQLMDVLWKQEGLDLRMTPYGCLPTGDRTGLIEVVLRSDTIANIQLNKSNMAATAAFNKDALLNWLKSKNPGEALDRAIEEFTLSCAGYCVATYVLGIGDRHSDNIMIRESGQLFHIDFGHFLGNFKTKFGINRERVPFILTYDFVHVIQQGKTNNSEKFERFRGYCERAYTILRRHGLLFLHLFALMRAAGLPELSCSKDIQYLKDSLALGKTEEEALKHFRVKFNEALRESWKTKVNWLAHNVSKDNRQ
PI3Kδ (p110δ/p85α) Recombinant Human Protein, sequence (P27986 whole entry partner): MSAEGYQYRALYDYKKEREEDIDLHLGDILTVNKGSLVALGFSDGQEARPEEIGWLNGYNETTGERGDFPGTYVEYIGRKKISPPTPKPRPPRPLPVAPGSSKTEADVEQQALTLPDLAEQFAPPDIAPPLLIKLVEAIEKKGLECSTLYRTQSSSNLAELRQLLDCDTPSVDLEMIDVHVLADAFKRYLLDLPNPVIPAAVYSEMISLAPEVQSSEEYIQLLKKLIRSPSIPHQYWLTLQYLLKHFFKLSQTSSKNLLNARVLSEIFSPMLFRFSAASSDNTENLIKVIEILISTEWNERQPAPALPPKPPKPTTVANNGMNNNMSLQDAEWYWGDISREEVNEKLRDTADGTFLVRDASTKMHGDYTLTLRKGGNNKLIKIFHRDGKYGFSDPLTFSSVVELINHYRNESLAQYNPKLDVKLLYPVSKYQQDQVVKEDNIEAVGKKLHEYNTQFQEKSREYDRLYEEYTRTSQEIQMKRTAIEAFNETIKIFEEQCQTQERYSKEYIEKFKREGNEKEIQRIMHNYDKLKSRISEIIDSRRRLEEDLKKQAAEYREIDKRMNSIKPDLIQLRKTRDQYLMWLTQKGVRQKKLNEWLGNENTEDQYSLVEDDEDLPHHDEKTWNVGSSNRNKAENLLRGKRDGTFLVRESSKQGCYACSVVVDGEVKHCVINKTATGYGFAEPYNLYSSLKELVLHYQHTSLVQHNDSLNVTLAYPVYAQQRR
PI3Kγ (p110γ) Recombinant Human Protein, sequence (P48736 whole entry): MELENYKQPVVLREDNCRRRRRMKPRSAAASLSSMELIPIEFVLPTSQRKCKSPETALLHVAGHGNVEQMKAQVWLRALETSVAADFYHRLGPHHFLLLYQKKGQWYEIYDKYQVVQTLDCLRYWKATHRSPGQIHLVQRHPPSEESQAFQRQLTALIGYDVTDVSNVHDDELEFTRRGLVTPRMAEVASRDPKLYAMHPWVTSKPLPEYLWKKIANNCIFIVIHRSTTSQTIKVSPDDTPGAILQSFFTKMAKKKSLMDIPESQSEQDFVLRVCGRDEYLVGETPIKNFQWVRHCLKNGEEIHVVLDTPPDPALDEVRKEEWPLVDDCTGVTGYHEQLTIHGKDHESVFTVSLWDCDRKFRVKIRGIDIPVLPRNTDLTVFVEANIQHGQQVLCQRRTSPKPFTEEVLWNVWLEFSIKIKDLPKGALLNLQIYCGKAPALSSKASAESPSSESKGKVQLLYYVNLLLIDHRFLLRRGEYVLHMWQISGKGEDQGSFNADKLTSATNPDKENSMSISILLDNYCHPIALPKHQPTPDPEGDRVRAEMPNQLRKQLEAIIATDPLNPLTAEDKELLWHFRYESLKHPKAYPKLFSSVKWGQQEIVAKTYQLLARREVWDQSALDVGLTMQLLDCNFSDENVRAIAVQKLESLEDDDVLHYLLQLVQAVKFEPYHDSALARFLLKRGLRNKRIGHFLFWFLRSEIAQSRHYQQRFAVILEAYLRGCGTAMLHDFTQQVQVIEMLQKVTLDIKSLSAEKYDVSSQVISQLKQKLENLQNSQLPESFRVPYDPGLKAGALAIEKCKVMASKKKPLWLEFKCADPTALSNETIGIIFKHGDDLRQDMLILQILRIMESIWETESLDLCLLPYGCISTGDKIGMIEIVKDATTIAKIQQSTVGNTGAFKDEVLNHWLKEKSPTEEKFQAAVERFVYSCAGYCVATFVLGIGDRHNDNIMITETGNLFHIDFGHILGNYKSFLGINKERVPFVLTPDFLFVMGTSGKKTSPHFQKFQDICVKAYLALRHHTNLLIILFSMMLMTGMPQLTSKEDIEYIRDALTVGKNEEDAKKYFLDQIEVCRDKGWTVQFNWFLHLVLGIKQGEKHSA

Compound	IC50 [1]	IC50 [2]	IC50 ([3]; Homo sapiens)	IC50 [3]
Cc1ccc(S(C)(=O)=O)cc1-c1cnc2c(N)nc(-c3ccncc3F)cn12 [Example 476, 6-(3-Fluoropyridin-4-yl)-3-(2-methyl-5-(methylsulfonyl)phenyl)imidazo[1,2-a]pyrazin-8-amine trifluoroacetate]	100 to 500 nM	< 100 nM	100 to 500 nM	–
COc1ncccc1-c1cn2c(-c3cc(S(C)(=O)=O)ccc3C)cnc2c(N)n1 [Example 477, 6-(2-Methoxypyridin-3-yl)-3-(2-methyl-5-(methylsulfonyl)phenyl)imidazo[1,2-a]pyrazin-8-amine trifluoroacetate]	100 to 500 nM	< 100 nM	–	100 to 500 nM
Cc1ccc(S(C)(=O)=O)cc1-c1cnc2c(N)nc(-c3ccc(N)nc3)cn12 [Example 482, 6-(6-Aminopyridin-3-yl)-3-(2-methyl-5-(methylsulfonyl)phenyl)imidazo[1,2-a]pyrazin-8-amine trifluoroacetate]	500 to 2000 nM	< 100 nM	> 1000 nM	–
COc1cnccc1-c1cn2c(-c3cc(S(C)(=O)=O)ccc3C)cnc2c(N)n1 [Example 485, 6-(3-Methoxypyridin-4-yl)-3-(2-methyl-5-(methylsulfonyl)phenyl)imidazo[1,2-a]pyrazin-8-amine trifluoroacetate]	100 to 500 nM	< 100 nM	100 to 500 nM	–
COc1nc(CO)ccc1-c1cn2c(-c3cc(S(C)(=O)=O)ccc3C)cnc2c(N)n1 [Example 490, (5-(8-Amino-3-(2-methyl-5-(methylsulfonyl)phenyl)imidazo[1,2-a]pyrazin-6-yl)-6-methoxypyridin-2-yl)methanol trifluoroacetate]	100 to 500 nM	< 100 nM	< 100 nM	–
Cc1ccc(S(=O)(=O)CC2CCOCC2)cc1-c1cnc2c(N)ncnn12 [Example 492, 7-(2-Methyl-5-(((tetrahydro-2H-pyran-4-yl)methyl)sulfonyl)phenyl)imidazo[2,1-f][1,2,4]triazin-4-amine trifluoroacetate]	500 to 2000 nM	< 100 nM	500 to 1000 nM	–
Cc1ccc(S(=O)(=O)CCC(C)(C)O)cc1-c1cnc2c(N)nc(C(F)(F)F)cn12 [Example 495, 4-((3-(8-Amino-6-(trifluoromethyl)imidazo[1,2-a]pyrazin-3-yl)-4-methylphenyl)sulfonyl)-2-methylbutan-2-ol]	500 to 2000 nM	< 100 nM	–	> 1000 nM
Cc1ccc(S(=O)(=O)CC(C)O)cc1-c1cnc2c(N)nc(C(F)(F)F)cn12 (stereo not drawn) [Example 496, 1-((3-(8-Amino-6-(trifluoromethyl)imidazo[1,2-a]pyrazin-3-yl)-4-methylphenyl)sulfonyl)propan-2-ol trifluoroacetate]	500 to 2000 nM	< 100 nM	500 to 1000 nM	–
COc1ncccc1-c1cn2c(-c3cc(S(=O)(=O)C(C)(C)C(C)O)ccc3C)cnc2c(N)n1 (stereo not drawn) [Example 502, 3-((3-(8-Amino-6-(2-methoxypyridin-3-yl)imidazo[1,2-a]pyrazin-3-yl)-4-methylphenyl)sulfonyl)-3-methylbutan-2-ol trifluoroacetate]	< 100 nM	< 100 nM	100 to 500 nM	–
Cc1ccc(S(=O)(=O)N[C@H]2CC[C@H](O)CC2)cc1-c1cnc2c(N)nc(C(C)C)cn12 [Example 504, 3-(8-Amino-6-isopropylimidazo[1,2-a]pyrazin-3-yl)-N-(trans-4-hydroxycyclohexyl)-4-methylbenzenesulfonamide]	< 100 nM	< 100 nM	< 100 nM	–
[2H][C@]1(NS(=O)(=O)c2ccc(C)c(-c3cnc4c(N)ncnn34)c2)CC[C@](C)(O)CC1 [Example 508, 3-(4-Aminoimidazo[2,1-f][1,2,4]triazin-7-yl)-N-((1r,4r)-4-hydroxy-4-methylcyclohexyl-1-d)-4-methylbenzenesulfonamide trifluoroacetate]	100 to 500 nM	< 100 nM	500 to 1000 nM	–
CCOC(=O)C1CCCN(S(=O)(=O)c2ccc(C)c(-c3cnc4c(N)nc(C(F)(F)F)cn34)c2)C1 (stereo not drawn) [Example 509, Ethyl 1-((3-(8-amino-6-(trifluoromethyl)imidazo[1,2-a]pyrazin-3-yl)-4-methylphenyl)sulfonyl)piperidine-3-carboxylate]	500 to 2000 nM	< 100 nM	> 1000 nM	–

More lines, main results first:

IC50 [1]	IC50 [2]	IC50 ([3]; Homo sapiens)	Compound	IC50 [3]
100 to 500 nM	< 100 nM	100 to 500 nM	Cc1ccc(S(C)(=O)=O)cc1-c1cnc2c(N)nc(-c3cccc(CO)c3F)cn12 [Example 481, (3-(8-Amino-3-(2-methyl-5-(methylsulfonyl)phenyl)imidazo[1,2-a]pyrazin-6-yl)-2-fluorophenyl)methanol]	–
< 100 nM	< 100 nM	> 1000 nM	COc1nccc(-c2cn3c(-c4cc(S(C)(=O)=O)ccc4C)cnc3c(N)n2)c1F [Example 483, 6-(3-Fluoro-2-methoxypyridin-4-yl)-3-(2-methyl-5-(methylsulfonyl)phenyl)imidazo[1,2-a]pyrazin-8-amine trifluoroacetate]	–
100 to 500 nM	< 100 nM	100 to 500 nM	Cc1ccc(S(C)(=O)=O)cc1-c1cnc2c(N)nc(-c3ccncc3Cl)cn12 [Example 484, 6-(3-Chloropyridin-4-yl)-3-(2-methyl-5-(methylsulfonyl)phenyl)imidazo[1,2-a]pyrazin-8-amine trifluoroacetate]	–
100 to 500 nM	< 100 nM	100 to 500 nM	Cc1ccc(S(C)(=O)=O)cc1-c1cnc2c(N)nc(-c3cccc(OCC#N)c3)cn12 [Example 486, 2-(3-(8-Amino-3-(2-methyl-5-(methylsulfonyl)phenyl)imidazo[1,2-a]pyrazin-6-yl)phenoxy)acetonitrile trifluoroacetate]	–
100 to 500 nM	< 100 nM	100 to 500 nM	Cc1ccc(S(C)(=O)=O)cc1-c1cnc2c(N)nc(-c3ccc(C(C)O)cc3F)cn12 (stereo not drawn) [Example 488, 1-(4-(8-Amino-3-(2-methyl-5-(methylsulfonyl)phenyl)imidazo[1,2-a]pyrazin-6-yl)-3-fluorophenyl)ethan-1-ol]	–
100 to 500 nM	< 100 nM	100 to 500 nM	Cc1cc(-c2cn3c(-c4cc(S(C)(=O)=O)ccc4C)cnc3c(N)n2)c(F)cn1 [Example 489, 6-(5-Fluoro-2-methylpyridin-4-yl)-3-(2-methyl-5-(methylsulfonyl)phenyl)imidazo[1,2-a]pyrazin-8-amine trifluoroacetate]	–
100 to 500 nM	< 100 nM	100 to 500 nM	COc1cn[nH]c1-c1cn2c(-c3cc(S(C)(=O)=O)ccc3C)cnc2c(N)n1 [Example 491, 6-(4-Methoxy-1H-pyrazol-5-yl)-3-(2-methyl-5-(methylsulfonyl)phenyl)imidazo[1,2-a]pyrazin-8-amine trifluoroacetate]	–
> 2000 nM	100 to 500 nM	> 1000 nM	Cc1ccc(S(=O)(=O)CCC(F)(F)F)cc1-c1cnc2c(N)ncnn12 [Example 493, 7-(2-Methyl-5-((3,3,3-trifluoropropyl)sulfonyl)phenyl)imidazo[2,1-f][1,2,4]triazin-4-amine trifluoroacetate]	–
500 to 2000 nM	< 100 nM	> 1000 nM	Cc1ccc(S(=O)(=O)CCC(C)O)cc1-c1cnc2c(N)nc(C(F)(F)F)cn12 (stereo not drawn) [Example 494, 4-((3-(8-Amino-6-(trifluoromethyl)imidazo[1,2-a]pyrazin-3-yl)-4-methylphenyl)sulfonyl)butan-2-ol]	–
500 to 2000 nM	< 100 nM	100 to 500 nM	Cc1ccc(S(=O)(=O)CC2CC(F)(F)C2)cc1-c1cnc2c(N)ncnn12 [Example 500, 7-(5-(((3,3-Difluorocyclobutyl)methyl)sulfonyl)-2-methylphenyl)imidazo[2,1-f][1,2,4]triazin-4-amine]	–
< 100 nM	< 100 nM	100 to 500 nM	Cc1ccc(S(=O)(=O)CC2(O)CCC2)cc1-c1cnc2c(N)nc(-c3ccncc3F)cn12 [Example 503, 1-(((3-(8-Amino-6-(3-fluoropyridin-4-yl)imidazo[1,2-a]pyrazin-3-yl)-4-methylphenyl)sulfonyl)methyl)cyclobutan-1-ol]	–
< 100 nM	< 100 nM	100 to 500 nM	Cc1cn2c(-c3cc(S(=O)(=O)N[C@H]4CC[C@](C)(O)CC4)ccc3C)cnc2c(N)n1 [Example 505, 3-(8-Amino-6-methylimidazo[1,2-a]pyrazin-3-yl)-N-((1r,4r)-4-hydroxy-4-methylcyclohexyl)-4-methylbenzenesulfonamide]	–
< 100 nM	< 100 nM	< 100 nM	Cc1ccc(S(=O)(=O)N2CC[C@H](O)C2)cc1-c1cnc2c(N)nc(-c3ccc(CO)cc3F)cn12 [Example 506, (S)-1-((3-(8-Amino-6-(2-fluoro-4-(hydroxymethyl)phenyl)imidazo[1,2-a]pyrazin-3-yl)-4-methylphenyl)sulfonyl)pyrrolidin-3-ol]	–
100 to 500 nM	< 100 nM	500 to 1000 nM	[2H][C@]1(NS(=O)(=O)c2ccc(C)c(-c3cnc4c(N)ncnn34)c2)CC[C@@](C)(O)CC1 [Example 507, 3-(4-Aminoimidazo[2,1-f][1,2,4]triazin-7-yl)-N-((1s,4s)-4-hydroxy-4-methylcyclohexyl-1-d)-4-methylbenzenesulfonamide]	–
